From ChEMBL document CHEMBL2384940, “Discovery of (R)-(2-fluoro-4-((-4-methoxyphenyl)ethynyl)phenyl) (3-hydroxypiperidin-1-yl)methanone (ML337), an mGlu3 selective and CNS penetrant negative allosteric modulator (NAM)” (J Med Chem, 2013)
≈ marks a conversion by molar mass, not a printed value. Blank lines part the entries; values can stand above or below the compound they belong to. Calls of active or inactive are those of the source. The rule behind the calls is not given here.

What was measured:
[1] = target: Metabotropic glutamate receptor 3 (Rattus norvegicus, UniProt P31422); experiment: Negative allosteric modulation of rat mGlu3 receptor transfected in human TREX cells assessed as inhibition of glutamate-induced calcium mobilization after 2.5 mins; type: functional, cell-based
Sequence of Metabotropic glutamate receptor 3 (P31422 whole entry): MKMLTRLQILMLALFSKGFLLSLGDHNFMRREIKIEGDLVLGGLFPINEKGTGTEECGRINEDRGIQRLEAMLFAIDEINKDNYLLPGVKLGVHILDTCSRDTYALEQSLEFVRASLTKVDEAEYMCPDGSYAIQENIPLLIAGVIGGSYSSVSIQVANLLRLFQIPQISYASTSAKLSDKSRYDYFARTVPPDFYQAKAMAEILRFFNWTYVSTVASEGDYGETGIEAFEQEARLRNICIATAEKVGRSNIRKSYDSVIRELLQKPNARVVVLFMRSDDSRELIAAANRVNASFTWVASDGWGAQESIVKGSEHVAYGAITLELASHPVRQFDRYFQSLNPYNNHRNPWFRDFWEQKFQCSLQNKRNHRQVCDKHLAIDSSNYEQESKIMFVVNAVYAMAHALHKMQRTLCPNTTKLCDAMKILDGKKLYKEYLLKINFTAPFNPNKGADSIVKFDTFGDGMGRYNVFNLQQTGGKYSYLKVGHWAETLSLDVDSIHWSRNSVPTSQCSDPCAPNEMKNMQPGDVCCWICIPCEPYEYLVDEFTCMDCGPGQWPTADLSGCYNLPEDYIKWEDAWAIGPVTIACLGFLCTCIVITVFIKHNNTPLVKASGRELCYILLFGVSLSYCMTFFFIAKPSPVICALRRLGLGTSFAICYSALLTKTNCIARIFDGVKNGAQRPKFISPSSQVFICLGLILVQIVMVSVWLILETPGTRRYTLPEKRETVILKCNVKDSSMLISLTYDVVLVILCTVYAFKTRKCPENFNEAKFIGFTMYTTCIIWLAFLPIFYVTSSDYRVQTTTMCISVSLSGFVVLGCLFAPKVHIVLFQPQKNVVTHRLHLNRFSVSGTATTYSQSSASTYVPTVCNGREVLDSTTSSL

[2] = target: Metabotropic glutamate receptor 8 (Homo sapiens) (UniProt O00222); experiment: Negative allosteric modulation of mGlu8 receptor (unknown origin) up to 30 uM
[3] = target: Metabotropic glutamate receptor 4 (Homo sapiens) (UniProt Q14833); experiment: Negative allosteric modulation of mGlu4 receptor (unknown origin) up to 30 uM
[4] = target: Metabotropic glutamate receptor 7 (Homo sapiens) (UniProt Q14831); experiment: Negative allosteric modulation of mGlu7 receptor (unknown origin) up to 30 uM
Plasma [5] = experiment: Plasma protein binding in mouse at 5 uM after 4 hrs by LC/MS/MS analysis; type: ADME, cell-free
Cytochrome P450 2C9 = Cytochrome P450 2C9 (Homo sapiens, UniProt P11712); experiment: Inhibition of CYP2C9 in human liver microsomes using diclofenac as substrate incubated for 15 mins prior to NADPH addition measured after 8 mins by LC/MS/MS analysis; type: ADME, Microsome
[6] = target: Metabotropic glutamate receptor 2 (Rattus norvegicus, UniProt P31421); experiment: Negative allosteric modulation of rat mGlu2 receptor transfected in HEK293 cells assessed as inhibition of glutamate-induced calcium mobilization after 2.5 mins; type: functional, cell-based
Sequence of Metabotropic glutamate receptor 2 (P31421 whole entry): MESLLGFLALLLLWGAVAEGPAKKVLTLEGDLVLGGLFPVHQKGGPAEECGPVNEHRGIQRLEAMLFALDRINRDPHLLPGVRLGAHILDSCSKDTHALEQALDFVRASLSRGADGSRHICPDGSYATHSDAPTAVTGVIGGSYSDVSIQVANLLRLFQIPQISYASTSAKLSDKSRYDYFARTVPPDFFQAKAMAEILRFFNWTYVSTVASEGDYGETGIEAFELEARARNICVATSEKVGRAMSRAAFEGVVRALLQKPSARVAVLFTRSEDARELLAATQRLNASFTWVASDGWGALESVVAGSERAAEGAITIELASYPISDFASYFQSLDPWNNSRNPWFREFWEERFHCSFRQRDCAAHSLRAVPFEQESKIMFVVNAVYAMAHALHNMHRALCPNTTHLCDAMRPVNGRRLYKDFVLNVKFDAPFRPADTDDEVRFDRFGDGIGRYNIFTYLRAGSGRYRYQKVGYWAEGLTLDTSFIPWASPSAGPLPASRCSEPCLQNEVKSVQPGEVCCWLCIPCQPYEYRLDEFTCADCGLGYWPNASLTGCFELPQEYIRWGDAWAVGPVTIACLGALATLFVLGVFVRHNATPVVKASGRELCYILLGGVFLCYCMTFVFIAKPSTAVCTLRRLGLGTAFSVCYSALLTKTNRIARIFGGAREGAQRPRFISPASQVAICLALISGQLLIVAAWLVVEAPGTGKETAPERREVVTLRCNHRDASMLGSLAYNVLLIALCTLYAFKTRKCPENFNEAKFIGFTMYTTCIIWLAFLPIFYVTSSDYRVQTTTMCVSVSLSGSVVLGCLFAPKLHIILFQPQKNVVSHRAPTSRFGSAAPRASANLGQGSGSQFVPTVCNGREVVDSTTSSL

[7] = target: Metabotropic glutamate receptor 1 (Homo sapiens) (UniProt Q13255); experiment: Negative allosteric modulation of mGlu1 receptor (unknown origin) up to 30 uM
Sequence of Metabotropic glutamate receptor 1 (Homo sapiens) (Q13255 19-1194 limits assumed): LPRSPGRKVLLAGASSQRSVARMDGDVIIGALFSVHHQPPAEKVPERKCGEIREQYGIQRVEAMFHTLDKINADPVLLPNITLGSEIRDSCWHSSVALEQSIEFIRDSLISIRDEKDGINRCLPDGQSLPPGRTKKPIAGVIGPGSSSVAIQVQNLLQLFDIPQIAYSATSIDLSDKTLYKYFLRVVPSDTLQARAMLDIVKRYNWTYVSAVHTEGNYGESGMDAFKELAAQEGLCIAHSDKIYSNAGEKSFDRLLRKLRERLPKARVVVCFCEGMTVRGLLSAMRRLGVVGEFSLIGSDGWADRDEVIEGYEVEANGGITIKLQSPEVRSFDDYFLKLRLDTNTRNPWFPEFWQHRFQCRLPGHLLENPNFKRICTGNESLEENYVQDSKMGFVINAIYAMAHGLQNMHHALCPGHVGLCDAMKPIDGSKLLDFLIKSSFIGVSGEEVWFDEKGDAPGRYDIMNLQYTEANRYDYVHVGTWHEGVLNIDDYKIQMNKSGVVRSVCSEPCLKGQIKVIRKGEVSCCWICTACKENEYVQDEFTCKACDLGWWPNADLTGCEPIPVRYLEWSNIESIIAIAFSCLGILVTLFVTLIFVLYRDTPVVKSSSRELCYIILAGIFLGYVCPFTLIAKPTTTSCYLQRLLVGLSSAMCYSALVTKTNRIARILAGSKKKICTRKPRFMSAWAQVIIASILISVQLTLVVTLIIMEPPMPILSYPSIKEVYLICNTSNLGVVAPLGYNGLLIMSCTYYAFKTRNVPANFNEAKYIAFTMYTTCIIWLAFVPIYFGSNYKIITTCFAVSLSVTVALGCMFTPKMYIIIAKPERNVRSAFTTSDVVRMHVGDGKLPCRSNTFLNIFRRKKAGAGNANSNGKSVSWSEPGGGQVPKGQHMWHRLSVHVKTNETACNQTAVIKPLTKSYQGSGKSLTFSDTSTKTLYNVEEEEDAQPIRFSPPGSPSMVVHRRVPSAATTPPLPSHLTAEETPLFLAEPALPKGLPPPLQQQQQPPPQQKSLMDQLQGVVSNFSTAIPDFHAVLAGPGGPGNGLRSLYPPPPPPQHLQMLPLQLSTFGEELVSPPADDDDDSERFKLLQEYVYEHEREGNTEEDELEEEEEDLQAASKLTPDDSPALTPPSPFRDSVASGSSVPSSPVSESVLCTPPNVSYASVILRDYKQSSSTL

Plasma [8] = experiment: Plasma protein binding in human at 5 uM after 4 hrs by LC/MS/MS analysis; type: ADME, cell-free
[9] = target: Metabotropic glutamate receptor 5 (Homo sapiens) (UniProt P41594); experiment: Negative allosteric modulation of mGlu5 receptor (unknown origin) up to 30 uM
Liver microsomes = experiment: Metabolic stability in human liver microsomes at 1 uM; type: ADME, Microsome
[10] = target: Sodium-dependent dopamine transporter (Homo sapiens) (UniProt Q01959); experiment: Binding affinity to human DAT at 10 uM by radioligand displacement assay relative to control
Sequence of Sodium-dependent dopamine transporter (Homo sapiens) (Q01959 whole entry): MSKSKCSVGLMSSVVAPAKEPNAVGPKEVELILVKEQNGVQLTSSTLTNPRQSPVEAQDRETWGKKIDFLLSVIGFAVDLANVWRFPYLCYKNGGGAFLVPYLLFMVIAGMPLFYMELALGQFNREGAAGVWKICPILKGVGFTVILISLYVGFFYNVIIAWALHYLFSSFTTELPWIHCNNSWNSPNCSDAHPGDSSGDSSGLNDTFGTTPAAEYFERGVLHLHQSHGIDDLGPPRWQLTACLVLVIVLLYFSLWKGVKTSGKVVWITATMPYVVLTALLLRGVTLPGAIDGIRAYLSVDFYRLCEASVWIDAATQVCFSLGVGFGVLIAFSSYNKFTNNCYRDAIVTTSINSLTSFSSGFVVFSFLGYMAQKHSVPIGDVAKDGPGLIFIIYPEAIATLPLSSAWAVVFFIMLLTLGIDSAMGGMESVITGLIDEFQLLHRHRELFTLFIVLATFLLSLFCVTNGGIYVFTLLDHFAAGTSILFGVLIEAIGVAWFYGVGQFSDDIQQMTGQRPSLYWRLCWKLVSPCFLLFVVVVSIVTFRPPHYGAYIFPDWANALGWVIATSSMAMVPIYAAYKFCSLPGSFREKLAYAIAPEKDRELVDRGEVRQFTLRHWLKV

[11] = target: Metabotropic glutamate receptor 3 (Rattus norvegicus) (UniProt P31422); experiment: Negative allosteric modulation of rat mGlu3 receptor transfected in human TREX cells assessed as inhibition of glutamate/LY379268-induced calcium mobilization; type: functional, cell-based
Sequence of Metabotropic glutamate receptor 3 (Rattus norvegicus) (P31422 23-879 limits assumed): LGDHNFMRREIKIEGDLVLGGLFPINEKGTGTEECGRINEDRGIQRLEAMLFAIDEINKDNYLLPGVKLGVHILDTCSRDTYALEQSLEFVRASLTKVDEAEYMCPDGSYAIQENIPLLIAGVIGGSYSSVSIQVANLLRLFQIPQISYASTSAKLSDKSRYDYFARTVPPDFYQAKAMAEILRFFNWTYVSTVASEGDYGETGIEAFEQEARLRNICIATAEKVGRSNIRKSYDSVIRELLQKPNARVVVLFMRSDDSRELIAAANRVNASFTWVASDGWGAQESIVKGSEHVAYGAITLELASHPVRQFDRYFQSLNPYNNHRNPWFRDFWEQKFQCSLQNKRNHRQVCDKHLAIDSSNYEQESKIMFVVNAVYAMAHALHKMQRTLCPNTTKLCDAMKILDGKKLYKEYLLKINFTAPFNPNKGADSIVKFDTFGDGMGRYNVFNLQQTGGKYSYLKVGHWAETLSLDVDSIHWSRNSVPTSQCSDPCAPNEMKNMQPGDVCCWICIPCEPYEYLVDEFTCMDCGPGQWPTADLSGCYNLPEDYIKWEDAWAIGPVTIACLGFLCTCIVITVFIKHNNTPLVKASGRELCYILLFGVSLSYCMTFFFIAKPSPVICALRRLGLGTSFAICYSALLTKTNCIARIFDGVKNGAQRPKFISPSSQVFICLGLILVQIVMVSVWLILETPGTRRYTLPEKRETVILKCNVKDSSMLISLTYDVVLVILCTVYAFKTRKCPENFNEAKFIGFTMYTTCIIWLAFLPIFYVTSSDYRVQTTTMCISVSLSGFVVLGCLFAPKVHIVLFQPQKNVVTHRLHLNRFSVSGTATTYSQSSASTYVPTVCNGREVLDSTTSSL

[12] = target: 5-hydroxytryptamine receptor 2B (Homo sapiens) (UniProt P41595); experiment: Binding affinity to human 5-HT2B receptor at 10 uM by radioligand displacement assay relative to control
Sequence of 5-hydroxytryptamine receptor 2B (Homo sapiens) (P41595 whole entry): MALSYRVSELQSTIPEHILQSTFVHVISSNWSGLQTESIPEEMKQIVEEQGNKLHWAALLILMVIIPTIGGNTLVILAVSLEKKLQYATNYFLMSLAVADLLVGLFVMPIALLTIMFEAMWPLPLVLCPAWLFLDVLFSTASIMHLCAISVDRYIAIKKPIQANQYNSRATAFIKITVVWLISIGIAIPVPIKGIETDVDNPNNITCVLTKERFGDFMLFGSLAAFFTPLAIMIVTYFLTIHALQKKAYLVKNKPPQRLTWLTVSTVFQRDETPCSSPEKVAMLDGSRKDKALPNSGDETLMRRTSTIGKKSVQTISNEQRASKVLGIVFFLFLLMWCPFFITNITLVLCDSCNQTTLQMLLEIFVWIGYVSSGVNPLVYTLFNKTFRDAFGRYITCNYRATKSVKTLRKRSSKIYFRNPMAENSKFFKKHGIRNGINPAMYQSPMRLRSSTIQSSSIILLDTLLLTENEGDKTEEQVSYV

[13] = target: Metabotropic glutamate receptor 3 (Rattus norvegicus) (UniProt P31422); experiment: Negative allosteric modulation of rat mGlu3 receptor transfected in human TREX cells after 2.5 mins by calcium mobilization assay relative to glutamate; type: functional, cell-based; parameters: concentration or dose not given beside the values
[14] = target: Metabotropic glutamate receptor 6 (Homo sapiens) (UniProt O15303); experiment: Negative allosteric modulation of mGlu6 receptor (unknown origin) up to 30 uM
Cytochrome P450 2D6 = Cytochrome P450 2D6 (Homo sapiens, UniProt P10635); experiment: Inhibition of CYP2D6 in human liver microsomes using dextromethorphan as substrate incubated for 15 mins prior to NADPH addition measured after 8 mins by LC/MS/MS analysis; type: ADME, Microsome
[15] = Solubility of the compound in PBS; type: physicochemical; conditions: buffer
Plasma [16] = experiment: Fraction unbound in rat plasma at 5 uM after 4 hrs by LC/MS/MS analysis; type: ADME, cell-free
Plasma [17] = experiment: Fraction unbound in human plasma at 5 uM after 4 hrs by LC/MS/MS analysis; type: ADME, cell-free
Cytochrome P450 1A2 = target: T1, Cytochrome P450 1A2 (Homo sapiens, UniProt P05177); experiment: Inhibition of CYP1A2 in human liver microsomes using phenacetin as substrate incubated for 15 mins prior to NADPH addition measured after 8 mins by LC/MS/MS analysis; type: ADME, Microsome
T1 sequence (P05177 whole entry): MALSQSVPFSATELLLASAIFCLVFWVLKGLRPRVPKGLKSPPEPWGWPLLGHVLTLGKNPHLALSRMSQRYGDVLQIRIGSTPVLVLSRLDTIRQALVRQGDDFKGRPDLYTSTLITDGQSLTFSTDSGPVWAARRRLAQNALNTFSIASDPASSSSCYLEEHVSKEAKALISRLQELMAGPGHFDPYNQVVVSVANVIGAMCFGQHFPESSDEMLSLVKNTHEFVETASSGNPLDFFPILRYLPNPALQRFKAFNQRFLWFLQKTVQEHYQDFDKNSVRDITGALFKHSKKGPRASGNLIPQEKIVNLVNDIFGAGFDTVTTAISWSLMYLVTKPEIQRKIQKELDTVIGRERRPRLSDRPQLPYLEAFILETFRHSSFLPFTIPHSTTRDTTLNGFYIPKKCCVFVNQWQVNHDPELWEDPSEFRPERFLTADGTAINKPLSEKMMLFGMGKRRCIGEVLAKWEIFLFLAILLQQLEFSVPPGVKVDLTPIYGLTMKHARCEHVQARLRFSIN

Plasma [18] = experiment: Fraction unbound in mouse plasma at 5 uM after 4 hrs by LC/MS/MS analysis; type: ADME, cell-free
[19] = target: Metabotropic glutamate receptor 3 (Rattus norvegicus) (UniProt P31422); experiment: Negative allosteric modulation of rat mGlu3 receptor transfected in human TREX cells assessed as non-competitive decrease in glutamate EC80; type: cell-based
Homo sapiens = organism: Homo sapiens; experiment: Selectivity ratio of IC50 for human mGlu2 receptor to IC50 for human mGlu3 receptor

IC50 ([1]; read-out: IC50): 0.45 µM
SMILES: [2H]C([2H])([2H])Oc1ccc(C#Cc2ccc(C(=O)N3CCC[C@@H](O)C3)c(F)c2)cc1

SMILES: COc1ccc(C#Cc2ccc(C(=O)N3CCC[C@@H](O)C3)c(F)c2)cc1
Activity [2]: inactive | Activity [3]: inactive | Activity [4]: inactive | PPB (Plasma [5]): 97% | IC50 (Cytochrome P450 2C9): > 30 µM | IC50 [6]: > 30 µM | Activity [7]: inactive | PPB (Plasma [8]): 97% | Activity [9]: inactive | Stability (Liver microsomes): Unstable | inhibition [10]: 71% | Activity [11]: Active | inhibition [12]: 74% | Activity [13]: 1.9% | Activity [14]: inactive | IC50 (Cytochrome P450 2D6): > 30 µM | solubility [15]: 7.8 µM (≈ 2.76 µg/mL) | Fu (Plasma [16]): 0.005 | Fu (Plasma [17]): 0.03 | IC50 ([1]; read-out: IC50): 0.593 µM | IC50 ([1]; read-out: pIC50 (converted)): 0.603 µM | IC50 (Cytochrome P450 1A2): > 30 µM | Fu (Plasma [18]): 0.027 | Activity [19]: Active

SMILES: Clc1ccc(CN[C@H]2CCN(c3ncc(Br)cn3)C2)c(Cl)c1
Ratio IC50 (Homo sapiens): 4

IC50 [6]: > 30 µM | Activity [13]: -0.13% | IC50 ([1]; read-out: IC50): 0.711 µM
SMILES: COc1ccc(C#Cc2ccc(C(=O)N3CCCC(C)(O)C3)cc2)cc1 (stereo unspecified)

IC50 ([1]; read-out: IC50): > 10 µM
SMILES: O=C(c1ccc(C#Cc2ccc3c(c2)OCCO3)cc1)N1CCC[C@@H](CO)C1

IC50 ([1]; read-out: IC50): > 10 µM
SMILES: O=C(c1ccc(C#Cc2ccc(O)cc2)cc1)N1CCC[C@@H](CO)C1

IC50 [6]: > 30 µM | Activity [13]: 1.7% | IC50 ([1]; read-out: pIC50 (converted)): 5.5 µM
SMILES: COc1ccc(C#Cc2ccc(C(=O)N3CC4CCC(O)C4C3)cc2)cc1 (stereo unspecified)

IC50 [6]: > 30 µM | Activity [13]: 0% | IC50 ([1]; read-out: pIC50 (converted)): 7.59 µM
SMILES: COc1ccc(C#Cc2ccc(C(=O)N3CCC(CO)C3)cc2)cc1 (stereo unspecified)

IC50 ([1]; read-out: IC50): > 10 µM
SMILES: CSc1ccc(C#Cc2ccc(C(=O)N3CCC[C@@H](CO)C3)cc2)cc1

IC50 ([1]; read-out: IC50): > 10 µM
SMILES: COc1ccc(C#Cc2ccc(C(=O)N3CCC[C@@H](CO)C3)cc2)c(F)c1

IC50 ([1]; read-out: IC50): > 10 µM
SMILES: COc1ccc(-c2nnc(-c3ccc(C(=O)N4CCC[C@@H](CO)C4)cc3)o2)cc1

IC50 ([1]; read-out: IC50): > 10 µM
SMILES: O=C(c1ccc(C#Cc2ccc3c(c2)OCO3)cc1)N1CCC[C@@H](CO)C1

IC50 [6]: > 30 µM | Activity [13]: 1.7% | IC50 ([1]; read-out: IC50): 1.1 µM
SMILES: COc1ccc(C#Cc2ccc(C(=O)N3CCC[C@H](O)C3)cc2)cc1

IC50 [6]: > 30 µM | Activity [13]: 0% | IC50 ([1]; read-out: pIC50 (converted)): 10.2 µM
SMILES: COc1ccc(C#Cc2ccc(C(=O)N3CC[C@@H](O)C3)cc2)cc1

IC50 [6]: > 30 µM | Activity [13]: 1.6% | IC50 ([1]; read-out: pIC50 (converted)): 7.59 µM
SMILES: COc1ccc(C#Cc2ccc(C(=O)NC(C)CO)cc2)cc1 (stereo unspecified)

IC50 ([1]; read-out: IC50): > 10 µM
SMILES: CCOc1ccc(C#Cc2ccc(C(=O)N3CCC[C@@H](CO)C3)cc2)cc1

IC50 ([1]; read-out: IC50): > 10 µM
SMILES: COc1ccc(C#Cc2ccc(C(=O)N3CCC[C@@H](CO)C3)cc2)cn1

IC50 ([1]; read-out: IC50): > 10 µM
SMILES: CC(C)Oc1ccc(C#Cc2ccc(C(=O)N3CCC[C@@H](CO)C3)cc2)cc1

IC50 ([1]; read-out: IC50): > 10 µM
SMILES: COc1ccc(C#Cc2ccc(C(=O)N3CCC[C@@H](CO)C3)cc2)cc1F

IC50 [6]: > 30 µM | Activity [13]: 1.64% | IC50 ([1]; read-out: IC50): 0.456 µM
SMILES: COc1ccc(C#Cc2ccc(C(=O)N3CCC[C@@H](O)C3)cc2F)cc1

IC50 ([1]; read-out: IC50): 0.31 µM
SMILES: [2H]C([2H])([2H])Oc1ccc(C#Cc2ccc(C(=O)N3CCC[C@@H](O)C3)cc2)cc1

IC50 ([1]; read-out: IC50): > 10 µM
SMILES: COc1ccc(C#Cc2ccc(C(=O)N3CCC[C@@H](CO)C3)cc2)cc1

IC50 ([1]; read-out: IC50): > 10 µM
SMILES: O=C(c1ccc(C#Cc2ccc(Oc3ccccc3)cc2)cc1)N1CCC[C@@H](CO)C1

IC50 ([1]; read-out: IC50): > 10 µM
SMILES: O=C(c1ccc(C#Cc2ccc(OC(F)(F)F)cc2)cc1)N1CCC[C@@H](CO)C1

IC50 [6]: > 30 µM | Activity [13]: 1.6% | IC50 ([1]; read-out: pIC50 (converted)): 2.75 µM
SMILES: COc1ccc(C#Cc2ccc(C(=O)N3CC4CCC(=O)C4C3)cc2)cc1 (stereo unspecified)

IC50 [6]: > 30 µM | Activity [13]: 0.4% | IC50 ([1]; read-out: IC50): 0.76 µM
SMILES: COc1ccc(C#Cc2ccc(C(=O)N3CCCC(O)C3)cc2)cc1 (racemic)

IC50 [6]: > 30 µM | IC50 ([1]; read-out: pIC50 (converted)): 27.5 µM
SMILES: COc1ccc(C#Cc2ccc(C(=O)N3CC[C@H](O)C3)cc2)cc1

IC50 ([1]; read-out: IC50): > 10 µM
SMILES: COc1ccc(C#Cc2ccc(C(=O)N3CCC[C@@H](CO)C3)cc2)c(F)c1F

IC50 [6]: > 30 µM | Activity [13]: 0% | IC50 ([1]; read-out: pIC50 (converted)): 5.5 µM
SMILES: COc1ccc(C#Cc2ccc(C(=O)N3CCCC(OC)C3)cc2)cc1 (stereo unspecified)

IC50 [6]: > 30 µM | Activity [13]: 2% | IC50 ([1]; read-out: IC50): 0.65 µM
SMILES: COc1ccc(C#Cc2ccc(C(=O)N3CCC[C@@H](O)C3)cc2)cc1
